Assay results as given in patent US8188277B2, “Aromatic compounds for suppressing the generation of collagen” (Otsuka Pharmaceutical Co., Ltd., priority 2004, dated 2012).
Read-outs that look alike come from different tables or passages of the source.

What was measured:
[1] = tested on: LI90 cells, a human stellate cell line; assay: Collagen synthesis inhibition (3H-proline incorporation) in TGF-β1-stimulated LI90 cells; type: cell-based; conditions: 10 pM h-TGF-β1, 16 hours with test compound, 3H-proline labelling 24 hours, concentration at which T/C = 0.5, read-out: Collagen synthesis inhibitory activity IC50
Description: The cultured cells were then washed with D-PBS(−) (DULBECCO's phosphate buffered saline), and subsequently further cultured for 3 days in MEM (Eagle's minimum essential medium) supplemented with 0.1% fetal bovine serum. The cultured cells were again washed with D-PBS(−), and cultured for 16 hours in MEM (0.1% fetal bovine serum with respect to a total MEM volume) which contained a test compound and 10 pM h-TGF-β1 (human transforming growth factor β1). Next, the cultured LI90 cells were washed with D-PBS(−), and cultured for 24 hours in MEM containing ^3H-proline (radioactive labelled compound) and 0.25 mM ascorbic acid. The produced collagen was labelled with RI (radioactive isotope). From this culture supernatant, an acid-soluble fraction was extracted. Radioactivity was measured for this fraction. The measured value was taken to be the collagen synthesis activity.
Radioactivity of the culture supernatant cultured with the test compound was compared with that of the culture supernatant cultured without the test compound to calculate a collagen synthesis inhibitory activity (T/C) and determine a concentration (μM) at which collagen synthesis was inhibited by 50% (IC50=a concentration of the test compound at which T/C corresponded to 0.5). T/C=(Radioactivity of culture supernatant cultured with the test compound)/(radioactivity of culture supernatant cultured without the test compound)

| Structure (SMILES) | IC50 ([1]; Homo sapiens) [nM] | melting point [°C] | further results |
| --- | --- | --- | --- |
| O=C(Nc1ccc(Oc2ccc(N3CCC(CC(=O)N4CCN(Cc5ccc6c(c5)OCO6)CC4)CC3)cc2)nc1)c1ccc(C(F)(F)F)cc1 [Example No. 319, N-[6-(4-{4-[2-(piperonyl-piperazin-1-yl)-2-oxoethyl]piperidin-1-yl}phenoxy)-pyridin-3-yl]-4-trifluoromethylbenzamide] |  |  | IC50 [1]: 1.9 nM |
| O=C(Nc1ccc(Oc2ccc(CCC(=O)N3CCN(Cc4ccc5c(c4)OCO5)CC3)cc2)nc1)c1ccc(C(F)(F)F)cc1 [Example No. 1039, N-(6-{4-[3-(4-piperonylpiperazin-1-yl)-3-oxopropyl]phenoxy}pyridin-3-yl)-4-trifluoromethylbenzamide] | 22 |  |  |
| Cc1cc(N(C)CC(=O)N2CCN(Cc3ccc4c(c3)OCO4)CC2)ccc1Oc1ccc(NC(=O)c2ccc(C(F)(F)F)cc2)cn1 [Example No. 1503, N-[6-(4-{[2-(4-piperonylpiperazin-1-yl)-2-oxoethyl]methylamino}-2-methylphenoxy)pyridin-3-yl]-4-trifluoromethylbenzamide] | 7.8 |  |  |
| O=C(Nc1ccc(Cl)c(Cl)c1)c1ccc(Oc2ccc(CCC(=O)N3CCN(Cc4ccc5c(c4)OCO5)CC3)cc2)nc1 [Example No. 2100, 6-{4-[3-(4-piperonylpiperazin-1-yl)-3-oxopropyl]phenoxy}-N-(3,4-dichlorophenyl)nicotinamide] | 79 |  |  |

Further lines, with some results ahead:

| IC50 ([1]; Homo sapiens) [nM] | melting point [°C] | Structure (SMILES) | further results |
| --- | --- | --- | --- |
|  | 163.1 to 166.5 | Cc1cc(N(C)CC(=O)N2CCN(Cc3ccc4c(c3)OCO4)CC2)ccc1Oc1ccc(NC(=O)c2ccc(-n3cccc3)cc2)cn1 [compound 2711, N-[6-(4-{[2-(4-piperonylpiperazin-1-yl)-2-oxoethyl]methylamino}-2-methylphenoxy)pyridin-3-yl]-4-pyrrole-1-ylbenzamide] |  |
|  | 177.8 to 180.1 | CCN(CC(=O)N1CCN(Cc2ccc3c(c2)OCO3)CC1)c1ccc(Oc2ccc(NS(=O)(=O)c3ccc(C(F)(F)F)cc3)cn2)c(F)c1 [compound 2712, N-[6-(4-{[2-(4-piperonylpiperazin-1-yl)-2-oxoethyl]ethylamino}-2-fluorophenoxy)pyridin-3-yl]-4-trifluoromethylbenzenesulfonamide] |  |
|  | 169 to 170 | O=C(Nc1ccc(Oc2ccc(C(O)CN3CCOCC3)cc2)c(F)c1)c1ccc(Cl)c(Cl)c1 (stereo not shown) [compound 2715, 3,4-dichloro-N-{3-fluoro-4-[4-(1-hydroxy-2-morpholine-4-ylethyl)phenoxy]phenyl}benzamide] |  |
